These are literature values, as cited in patent US20090232888A1, “SUSTAINED DELIVERY OF ANTIBIOTICS” (ORIENT PHARMA, priority 2008, published 2009).

The conditions of series [1]: solution, 4° C., shelf-life based on 90% residual potency.

On to `CN[C@H](CC(C)C)C(=O)N[C@H]1C(=O)N[C@@H](CC(N)=O)C(=O)N[C@H]2C(=O)N[C@H]3C(=O)N[C@H](C(=O)N[C@H](C(=O)O)c4cc(O)cc(O)c4-c4cc3ccc4O)[C@H](O)c3ccc(c(Cl)c3)Oc3cc2cc(c3O[C@@H]2O[C@H](CO)[C@@H](O)[C@H](O)[C@H]2O[C@H]2C[C@](C)(N)[C@H](O)[C@H](C)O2)Oc2ccc(cc2Cl)[C@H]1O` [vancomycin], for which the oral bioavailability result is listed as “negligible”. In addition, the “time vancomycin solutions were stable (shelf-life of 90% residual potency)” value in series [1] is listed as “at least 58 days”.
